Laboratory results published in the CheMixHub ionic liquid set.

Test: xn = mol fraction of the nth substance listed

CCCC[n+]1ccn(C)c1.N[C@@H](CC(=O)O)C(=O)[O-] + CO
101 kPa
Conditions	electrical conductivity [S/m]
298.15 K, x2 = 0.2999	0.101
298.15 K, x2 = 0.5015	0.161
298.15 K, x2 = 0.7957	0.64
298.15 K, x2 = 0.8988	1.13
303.15 K, x2 = 0.1999	0.108
303.15 K, x2 = 0.5949	0.241
303.15 K, x2 = 0.6969	0.377
308.15 K, x2 = 0.398	0.218
308.15 K, x2 = 0.6969	0.496
308.15 K, x2 = 0.9214	1.39
308.15 K, x2 = 0.975	1.36
318.15 K, x2 = 0.1999	0.212
318.15 K, x2 = 0.5015	0.378
318.15 K, x2 = 0.7957	0.98
318.15 K, x2 = 0.8988	1.42

CCc1n(S(=O)(=O)O)cc[n+]1S(=O)(=O)O.O=C([O-])C(F)(F)F + CO
electrical conductivity [S/m], 101 kPa
Conditions	283.15 K	293.15 K	298.15 K	313.15 K
x1 = 0.0052	–	–	1.51	–
x1 = 0.0255	–	–	3.08	–
x1 = 0.02551	3.57	3.28	3.08	2.7

Cc1n(S(=O)(=O)O)cc[n+]1S(=O)(=O)O.O=C([O-])C(F)(F)F + CO
Conditions	electrical conductivity [S/m]
298.15 K, 101 kPa, x1 = 0.0104	1.52

O=C([O-])C(F)(F)F.O=S(=O)(O)n1cc[n+](S(=O)(=O)O)c1 + CO
electrical conductivity [S/m], 101 kPa
Conditions	288.15 K	298.15 K	308.15 K	313.15 K	333.15 K
x1 = 0.0052	–	1.85	–	–	–
x1 = 0.02551	4.64	–	3.89	3.76	3.25

CCCCCCCCCCCCCC[P+](CCCCCC)(CCCCCC)CCCCCC.Cc1ncc([N+](=O)[O-])[n-]1 + COCCOCCOCCOCCOC
viscosity [mPa·s], 100 kPa
Conditions	278.15 K	283.15 K	288.15 K	293.15 K	298.15 K	303.15 K	308.15 K	313.15 K	318.15 K	323.15 K
x2 = 0.151	2535	1685	1140	791	563	411	306	232	179	141
x2 = 0.399	595	425	308	228	173	134	106	85	69	57

CCCCCCCCCCCCCC[P+](CCCCCC)(CCCCCC)CCCCCC.N#C[N-]C#N + COCCOCCOCCOCCOC
viscosity [mPa·s], 100 kPa
Conditions	278.15 K	283.15 K	288.15 K	293.15 K	298.15 K	303.15 K	308.15 K	313.15 K	318.15 K	323.15 K
x2 = 0	1750	1210	842	603	442	331	253	196	155	124
x2 = 0.099	1130	794	566	413	308	234	182	143	115	93
x2 = 0.203	708	508	370	275	209	162	128	103	83	69
x2 = 0.299	479	348	258	195	151	119	96	78	64	54
x2 = 0.501	160	122	95	75	61	–	–	–	–	–
x2 = 0.652	73	57	–	–	–	–	–	–	–	–

CCCCCCCCCCCCCC[P+](CCCCCC)(CCCCCC)CCCCCC.N#Cc1nc[n-]c1C#N + COCCOCCOCCOCCOC
viscosity [mPa·s], 100 kPa
Conditions	278.15 K	283.15 K	288.15 K	293.15 K	298.15 K	303.15 K	308.15 K	313.15 K	318.15 K	323.15 K
x2 = 0.201	1051	723	507	365	269	203	156	123	98	79
x2 = 0.401	389	283	209	158	122	97	77	63	–	–

CC[n+]1ccn(C)c1.O=S(=O)([O-])C(F)(F)F + CS(C)=O
100 kPa
Conditions	viscosity [mPa·s]
298.15 K, x1 = 0.1068	3.7
298.15 K, x1 = 0.3077	7.9
318.15 K, x1 = 0.4023	7
323.15 K, x1 = 0.4933	8.2

COCCOCCn1cc[n+](CCC#N)c1.O=S(=O)([N-]S(=O)(=O)C(F)(F)F)C(F)(F)F + CS(C)=O
101.3 kPa
Conditions	electrical conductivity [S/m]	viscosity [mPa·s]
293.15 K, x1 = 0.1981	0.00634	8.12
293.15 K, x1 = 0.2776	0.00928	–
303.15 K, x1 = 0.0989	0.00234	–
303.15 K, x1 = 0.1981	0.00768	–
303.15 K, x1 = 0.2776	0.0112	9.24
303.15 K, x1 = 0.5029	0.0405	26.2
303.15 K, x1 = 0.89	0.0942	83.1
313.15 K, x1 = 0.0989	0.00278	–
313.15 K, x1 = 0.1981	0.00939	–
313.15 K, x1 = 0.798	0.148	33.2
313.15 K, x1 = 0.89	0.125	51.5
323.15 K, x1 = 0.0989	0.00342	–
323.15 K, x1 = 0.1981	0.0122	3.212
323.15 K, x1 = 0.798	0.203	24.66

CC[n+]1ccn(C)c1.O=S(=O)([O-])C(F)(F)F + CS(C)=O + CC#N
viscosity [mPa·s], 100 kPa
Conditions	298.15 K	303.15 K	308.15 K	313.15 K	318.15 K	323.15 K
x1 = 0.1068, x2 = 0.8932	3.7	–	–	–	–	–
x1 = 0.2015, x2 = 0.7985	5.3	4.7	–	3.8	3.4	–
x1 = 0.2065, x2 = 0.6555	3.5	–	–	–	–	–
x1 = 0.2333, x2 = 0.6152	3.7	–	–	–	–	–
x1 = 0.2695, x2 = 0.5629	4.1	3.7	3.4	–	–	–
x1 = 0.3077, x2 = 0.6923	7.9	–	6.1	5.4	4.9	–
x1 = 0.3091, x2 = 0.5059	4.6	4.2	3.9	3.5	–	–
x1 = 0.3343, x2 = 0.4656	5.1	4.6	–	3.8	3.5	–
x1 = 0.361, x2 = 0.4229	5.6	5	4.6	4.2	3.8	–
x1 = 0.3948, x2 = 0	4.5	4.1	3.8	3.5	–	–
x1 = 0.4023, x2 = 0.5977	–	–	8.9	7.8	7	6.2
x1 = 0.4096, x2 = 0.3523	6.7	6	5.4	4.9	4.4	4.1
x1 = 0.4353, x2 = 0.3096	7.4	6.6	–	5.3	4.8	–
x1 = 0.4741, x2 = 0.2498	8.5	7.6	6.7	6	5.5	5
x1 = 0.4933, x2 = 0.5067	–	–	–	–	9.3	8.2
x1 = 0.498, x2 = 0	7.4	6.6	6	5.4	4.9	–
x1 = 0.5094, x2 = 0.1935	9.7	8.6	7.6	6.8	6.1	5.5
x1 = 0.5368, x2 = 0.1703	–	9.5	8.4	7.5	6.7	6
x1 = 0.5656, x2 = 0.1458	–	–	9.2	8.2	7.3	6.6
x1 = 0.595, x2 = 0	–	9.5	8.4	7.5	6.7	6
x1 = 0.5961, x2 = 0.12	–	–	–	9	8	7.2
x1 = 0.6284, x2 = 0.0927	–	–	–	–	8.9	7.9
x1 = 0.6565, x2 = 0.0845	–	–	–	–	9.7	8.6
x1 = 0.686, x2 = 0.076	–	–	–	–	–	9.4
x1 = 0.6936, x2 = 0	–	–	–	–	9.5	8.3
x1 = 0.7058, x2 = 0.0663	–	–	–	–	–	9.9
x1 = 0.9005, x2 = 0	34	–	–	–	–	–
x1 = 0.9008, x2 = 0.0992	39	–	–	–	–	–
x1 = 1, x2 = 0	46	38	–	–	–	–
